Measured values from PubChem BioAssay AID292 (DTP/NCI, 2004).
Several values for one entry are separate records, joined by “and”; a condition that tells them apart may be missing. Identical values can stand only once. Inconclusive results and toxic doses are left out. The calls were made as follows: active = survival T/C of 150% or more; inactive = T/C below 125% in these data.

System: B6C3F1 mice, ip Sarcoma M5076, median survival T/C
Test: NCI In Vivo Anticancer Drug Screen. Data for tumor model Sarcoma M5076 (intraperitoneal) in B6C3F1 mice
Conditions: endpoint: median survival time, schedule: Q04DX004 (ip), higher = longer survival
Outline: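 Antitumour effect is judged in tumour-bearing mice by comparing survival after compound dosing against vehicle-only animals, reported as T/C.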

[1] = dose: 50.0 mg/kg/injection, vehicle: saline
[2] = dose: 50.0 mg/kg/injection, vehicle: suspension in saline
[3] = dose: 100.0 mg/kg/injection, vehicle: saline
[4] = dose: 100.0 mg/kg/injection, vehicle: suspension in saline
[5] = dose: 200.0 mg/kg/injection, vehicle: saline
[6] = dose: 400.0 mg/kg/injection, vehicle: saline
[7] = dose: 400.0 mg/kg/injection, vehicle: suspension in saline
[8] = dose: 800.0 mg/kg/injection, vehicle: saline
[9] = dose: 800.0 mg/kg/injection, vehicle: suspension in saline
[10] = dose: 25.0 mg/kg/injection, vehicle: saline with Tween-80
[11] = dose: 50.0 mg/kg/injection, vehicle: saline with Tween-80
[12] = dose: 100.0 mg/kg/injection, vehicle: saline with Tween-80
[13] = dose: 50.0 mg/kg/injection, vehicle: Klucel (hydroxypropylcellulose) (HPC)
[14] = dose: 100.0 mg/kg/injection, vehicle: Klucel (hydroxypropylcellulose) (HPC)
[15] = dose: 200.0 mg/kg/injection, vehicle: Klucel (hydroxypropylcellulose) (HPC)
[16] = dose: 400.0 mg/kg/injection, vehicle: Klucel (hydroxypropylcellulose) (HPC)
[17] = dose: 25.0 mg/kg/injection, vehicle: Klucel (hydroxypropylcellulose) (HPC)
[18] = dose: 75.0 mg/kg/injection, vehicle: Klucel (hydroxypropylcellulose) (HPC)
[19] = dose: 150.0 mg/kg/injection, vehicle: Klucel (hydroxypropylcellulose) (HPC)
[20] = dose: 300.0 mg/kg/injection, vehicle: Klucel (hydroxypropylcellulose) (HPC)
[21] = dose: 200.0 mg/kg/injection, vehicle: saline with Tween-80

Measured: T/C

O=S(O)Cc1ccccc1CSSSCc1ccccc1CS(=O)O
inactive: [1] 105 % of control | [2] 111 % of control | [3] 103 % of control | [4] 95 % of control | [5] 94 % of control | [6] 99 % of control | [7] 91 % of control | [8] 95 % of control | [9] 91 % of control

Nc1ccc2c(c1)CN1C(=O)c3ccccc3C1=N2
inactive: [10] 104 % of control | [11] 110 % of control | [12] 116 % of control

CN1C(=O)OC(c2ccc(Cl)cc2)C1=O (configuration not stated)
inactive: [13] 92 % of control | [14] 93 % of control | [15] 94 % of control | [16] 97 % of control

Cc1ccc(C)c(NC(=O)C2C(=O)C(=O)N(c3cc(C)ccc3C)C2=O)c1 (configuration not stated)
inactive: [13] 102 % of control | [14] 100 % of control | [15] 108 % of control | [16] 105 % of control

NC12CC3CC(CC(C3)C1)C2
inactive: [10] 100 % of control | [11] 94 % of control

O=S1(=O)C(c2cccc(F)c2)=C(O)c2cc3ccccc3nc21
inactive: dose: 26.57 mg/kg/injection, vehicle: saline with Tween-80 100 % of control | dose: 53.13 mg/kg/injection, vehicle: saline with Tween-80 92 % of control | dose: 106.25 mg/kg/injection, vehicle: saline with Tween-80 96 % of control | dose: 212.5 mg/kg/injection, vehicle: saline with Tween-80 92 % of control

CCNC(=O)OCc1cnc(C)c(O)c1COC(=O)NCC
inactive: [1] 97 % of control | [3] 107 % of control | [5] 108 % of control | [6] 102 % of control

CCCCNc1ccc2nnc(C)n2n1
inactive: dose: 25.0 mg/kg/injection, vehicle: DMSO 99 % of control | dose: 50.0 mg/kg/injection, vehicle: DMSO 92 % of control and 100 % of control | dose: 100.0 mg/kg/injection, vehicle: DMSO 94 % of control and 96 % of control | dose: 200.0 mg/kg/injection, vehicle: DMSO 92 % of control and 101 % of control

COc1nc2cc3c(cc2n2cccc12)oc1ccccc13
inactive: dose: 0.38 mg/kg/injection, vehicle: saline with Tween-80 92 % of control | dose: 0.75 mg/kg/injection, vehicle: saline with Tween-80 89 % of control

CC1=CC(C)C(O)C(C)/C=C/C(O)C/C=C(/C)C(=O)CC(O)C(C)\C=C/C=C/C=C\C(=O)NC2=C(O)c3cc(C)c(O)c(c3C(=O)C2=O)C1=O (configuration not stated)
inactive: dose: 1.25 mg/kg/injection, vehicle: Klucel (hydroxypropylcellulose) (HPC) 109 % of control | dose: 2.5 mg/kg/injection, vehicle: Klucel (hydroxypropylcellulose) (HPC) 97 % of control | dose: 5.0 mg/kg/injection, vehicle: Klucel (hydroxypropylcellulose) (HPC) 102 % of control | dose: 10.0 mg/kg/injection, vehicle: Klucel (hydroxypropylcellulose) (HPC) 102 % of control | [17] 98 % of control

O=C(Nc1cccnc1)c1ccc([N+](=O)[O-])s1
inactive: dose: 3.0 mg/kg/injection, vehicle: saline 102 % of control | dose: 6.0 mg/kg/injection, vehicle: saline 97 % of control | dose: 12.0 mg/kg/injection, vehicle: saline 96 % of control | dose: 24.0 mg/kg/injection, vehicle: saline 87 % of control | dose: 48.0 mg/kg/injection, vehicle: saline 89 % of control

CC(=O)OCCN1CCOC(O)(c2cccc(C(F)(F)F)c2)C1 (configuration not stated)
inactive: dose: 11.25 mg/kg/injection, vehicle: saline with Tween-80 97 % of control | dose: 22.5 mg/kg/injection, vehicle: saline with Tween-80 96 % of control | dose: 45.0 mg/kg/injection, vehicle: saline with Tween-80 97 % of control | dose: 90.0 mg/kg/injection, vehicle: saline with Tween-80 100 % of control | dose: 180.0 mg/kg/injection, vehicle: saline with Tween-80 98 % of control

N#CC1C(=O)NC(=S)NC1c1ccc(Cl)c(Cl)c1 (configuration not stated)
inactive: dose: 37.5 mg/kg/injection, vehicle: Klucel (hydroxypropylcellulose) (HPC) 94 % of control | [18] 99 % of control | [19] 97 % of control | [20] 91 % of control | dose: 600.0 mg/kg/injection, vehicle: Klucel (hydroxypropylcellulose) (HPC) 89 % of control

Cc1ccc2c(c1)n([O-])c1cc(Cl)ccc1[n+]2=O
inactive: [10] 104 % of control | [11] 113 % of control | [12] 109 % of control | dose: 144.0 mg/kg/injection, vehicle: saline with Tween-80 120 % of control

C=CCOc1cc2c(cc1C(C)c1ccc(OC)cc1)OCO2 (configuration not stated)
inactive: [17] 98 % of control | [13] 116 % of control | [18] 113 % of control | [14] 115 % of control | dose: 144.0 mg/kg/injection, vehicle: Klucel (hydroxypropylcellulose) (HPC) 118 % of control | [19] 106 % of control | [15] 123 % of control | dose: 240.0 mg/kg/injection, vehicle: Klucel (hydroxypropylcellulose) (HPC) 108 % of control | [20] 124 % of control | [16] 108 % of control

NCCCNCCCCNC(=O)C(O)NC(=O)CC(O)CCCCN=C(N)N (configuration not stated)
inactive: [1] 117 % of control | [3] 115 % of control

CN(C)c1cc2c(nn1)Nc1ccccc1S2
inactive: [11] 88 % of control | [12] 88 % of control | [21] 97 % of control | dose: 800.0 mg/kg/injection, vehicle: saline with Tween-80 90 % of control

CC1=C(C(N)=O)C(c2ccccc2)NC(=S)N1 (configuration not stated)
inactive: [13] 107 % of control | [14] 99 % of control | [15] 104 % of control

O=S(=O)(O)c1cc(N=C=S)ccc1/C=C/c1ccc(N=C=S)cc1S(=O)(=O)O
inactive: dose: 25.0 mg/kg/injection, vehicle: saline 100 % of control | [1] 103 % of control | [3] 110 % of control | [5] 112 % of control

COc1cccc2sc(-n3c(C)nc4ccccc4c3=O)nc12
inactive: dose: 31.25 mg/kg/injection, vehicle: Klucel (hydroxypropylcellulose) (HPC) 109 % of control | dose: 62.5 mg/kg/injection, vehicle: Klucel (hydroxypropylcellulose) (HPC) 94 % of control | dose: 125.0 mg/kg/injection, vehicle: Klucel (hydroxypropylcellulose) (HPC) 93 % of control | dose: 250.0 mg/kg/injection, vehicle: Klucel (hydroxypropylcellulose) (HPC) 94 % of control | dose: 500.0 mg/kg/injection, vehicle: Klucel (hydroxypropylcellulose) (HPC) 95 % of control

O=c1[nH]cnc2c1nnn2C1OC(CO)C(O)C1O (configuration not stated)
inactive: [1] 105 % of control | [2] 97 % of control | [3] 93 % of control | [4] 94 % of control | [5] 112 % of control | dose: 200.0 mg/kg/injection, vehicle: suspension in saline 98 % of control | [6] 101 % of control | [7] 96 % of control | [8] 103 % of control | [9] 96 % of control

O=C(Nc1cc(Cl)ccc1C(=O)O)c1cccc(C[n+]2ccccc2)c1
inactive: [11] 100 % of control | [12] 104 % of control | [21] 95 % of control | dose: 400.0 mg/kg/injection, vehicle: saline with Tween-80 88 % of control
